From patent US10336748B2, “Methyoxy-substituted pyrrolopyridine modulators of RORC2 and methods of use thereof” (Pfizer Inc., priority 2015, dated 2019)

Key:
human Th17 cells = experiment: IL-17 production from human Th17 cells; assay type: cell-based; conditions: 144 h; IL-17A in supernatant by ELISA (MSD) after 6 days, human CD4+ T cells, anti-CD3 + anti-CD28 + cytokine cocktail
Procedure: The activity of compound of the invention can be also be determined by an IL-17 production from human Th17 cells assay. In general, this assay measures blockade of IL-17 production, the signature cytokine of T helper 17 (Th17) cells, by compounds. Purified human CD4+ T cells are stimulated with anti-CD3+anti-CD28 and incubated with a cytokine cocktail that induce their differentiation into Th17 in the absence or presence of various concentrations of compound. After 6 days, IL-17A concentration is measured in the cell culture supernatant with an ELISA kit (MSD).
Preparation of human CD4+ T cells. CD4+ T cells were purified from buffy coats from healthy donors (obtained from Massachusetts General Hospital) by negative selection the following procedure: Mixing 25 mL of blood with 1 mL of Rosette Sep CD4+ T cell enrichment cocktail (StemCell Technologies) followed by application of a layer of 14 mL Ficoll Paque Plus (Amersham GE Healthcare) and subsequent centrifugation at 1200 g for 20 min at room temperature. The Ficoll layer was then harvested and washed with phosphate saline buffer containing 2% (v/v) fetal bovine serum and cells were resuspended with RPMI medium containing 10% (v/v) fetal bovine serum and 10% (v/v) DMSO, frozen and kept in LN2 until used.
On the first day of the assay, a vial containing 10^7 CD4+ T cells is thawed rapidly in 37° C. water bath, immediately transferred into 20 mL X-Vivo 15 medium (Lonza), is spun for 6 min at 300×g, the supernatant is discarded, and the resulting pellet is re-suspended at 10^6 cells/mL in […] fresh X-Vivo 15 medium, followed by storage overnight in a tissue culture vessel in a humidified chamber at 37° C. and 5% CO2. Serial dilutions of compounds of the invention are prepared at 10× final concentration in X-Vivo15 medium containing 3% (v/v) DMSO.
On the second day of the assay, a 384-well tissue culture plate was coated with 10 μg/mL anti-hCD3 (eBioscience) at 50 μL/well. After 2 hr at 37° C., the supernatant is discarded and the coated plates are kept in a sterile tissue culture hood.
Cytokine plus anti-CD28 cocktail is prepared by mixing 25 ng/mL hIL-6 (Peprotech), 5 ng/mL hTGFbeta1 (Peprotech), 12.5 ng/mL IL-1beta (Peprotech), 25 ng/mL hIL-21, 25 ng/mL hIL-23 (R&D Systems), and 1 ug/mL anti-hCD28 (eBioscience) in X-Vivo 15 medium. The cytokine plus anti-CD28 cocktail with CD4+ cells is prepared such that the cocktail is diluted 10-fold and cell density is 0.22×10^6/mL. The mixture is incubated 1 hr at 37° C.
90 μL (20,000 cells) dispensed per well in the anti-hCD3 coated plate prepared as noted above.
10 μL 10× compound is added per well (final DMSO=0.3%) from the compound plate that was previously prepared, followed by 6 days of incubation in a tissue culture vessel in a humidified chamber at 37° C. and 5% CO2.
On day six of the assay, production of IL-17A in 10 μL of the supernatant is determined by sandwich ELISA using 384w hIL17 MSD plates following the manufacturer's protocol. Measurement is carried out in a Sector Imager 6000 by the same manufacturer. Signal units from the instrument are converted to pg/mL using a calibration curve with known amounts of IL-17A. IC50 values of test compounds (Table 2) are determined by the non-linear regression analysis of dose response curves.

[1] = biological target: T1, RORC2 ligand binding domain (6-His-RORC2 LBD) (Homo sapiens, UniProt P51449); experiment: Co-activator recruitment by TR-FRET; assay type: biochemical; conditions: 6.3 nM RORC2 LBD, 200 nM SRC1-2 coactivator peptide, 3 hr room temperature
T1 construct: made in house; host or cells: E. coli
T1 sequence (P51449 269-508 limits assumed): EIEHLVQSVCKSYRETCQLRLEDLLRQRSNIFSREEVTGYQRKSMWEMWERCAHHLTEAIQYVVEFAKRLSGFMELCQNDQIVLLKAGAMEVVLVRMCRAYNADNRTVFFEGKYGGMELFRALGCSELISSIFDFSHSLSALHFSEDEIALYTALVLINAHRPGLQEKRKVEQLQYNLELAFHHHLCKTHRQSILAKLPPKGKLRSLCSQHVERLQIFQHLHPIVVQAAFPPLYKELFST
From the text: The activity of compound of the invention can be determined by a co-activator recruitment by TR-FRET (time-resolved fluorescence resonance energy transfer) assay. In general, the assay is based on the interaction between N-terminally Six-Histidine-tagged-RORC2 ligand binding domain (6-His-RORC2 LBD), expressed in E. coli and purified by affinity chromatography, and biotin-coactivator peptide SRC1-2 (biotin-aminohexanoic acid-[…]-NH2; SEQ ID NO: 1) containing the LXXLL consensus domain which is responsible for receptor binding. This interaction is detected by addition of Europium labeled-anti-His antibody (Ex. 337 nm, Em. 620 nm, which binds to 6His) and Streptavidin-APC (Ex. 620 nm, Em. 665 nm, which binds to biotin). When receptor and coactivator are bound to each other, upon shining light at 337 nm on the sample, the Europium emits fluorescence that excites APC due to close proximity (FRET) and this signal is measured at 665 nm. Due to the long lasting fluorescence emission of Europium, the non-specific, short-lived fluorescence is time-resolved (TR) from the fluorescence of interest. Inhibitors of the interaction of receptor and coactivator peptide are detected by a decrease in TR-FRET signal.
Specifically, in one embodiment the aforementioned assay was performed as outlined below. The assay was carried out in black polystyrene. 384-well plates in a total assay volume of 50.5 μL. The assay buffer contained 50 mM TRIS-HCL pH 7.5, 1 mM NaCl, 2 mM MgCl2, 0.5 mg/mL bovine serum albumin, and 5 mM dithiothreitol. The final concentration of reagents was 6.3 nM RORC2 LBD, 200 nM SRC1-2, 50 nM streptavidin APC, 1 nM Europium-labeled anti-His antibody, and varying concentrations of compounds such that final concentration of DMSO is 1% (v/v). The assay steps were: (1) dispensing […] compound at 100× final concentration in DMSO (test wells) or DMSO only (control wells for no inhibition); and (2) dispensing 50 μL mixture of the other assay components including receptor (test wells) or excluding receptor (control wells for maximal inhibition).
Assay mixtures were incubated are room temperature for 3 hr and read in EnVision 2100 Multilabel Reader (PerkinElmer Life Sciences) at Excitation Filter 320, Emission Europium Filter 615, Emission APC Filter 665, Dichroic Mirror D400/D630.
TR-FRET signal was determined by calculating the ratio of 665 nm by 615 nm and […] values of compounds of the invention (Table 1) were determined by the non-linear regression analysis of dose response curves.

Structure (SMILES) | IC50 (human Th17 cells) [nM] | IC50 [1] [nM]
COc1c(NC(=O)c2cccc(C#N)c2)cnc2c1c(C1CCN(C(=O)[C@@H](C)C(C)(C)C)CC1)cn2C [Example 15, (S)-3-cyano-N-(4-methoxy-1-methyl-3-(1-(2,3,3-trimethylbutanoyl)piperidin-4-yl)-1H-pyrrolo[2,3-b]pyridin-5-yl)benzamide] | 23.5 | 8.6
COc1c(NC(=O)c2cccc(C#N)c2)cnc2c1c(C1CCN(C(=O)c3c(C)cccc3F)CC1)cn2C [Example 16, 3-cyano-N-(3-(1-(2-fluoro-6-methylbenzoyl)piperidin-4-yl)-4-methoxy-1-methyl-1H-pyrrolo[2,3-b]pyridin-5-yl)benzamide] | 36.5 | 7.2
COc1c(NC(=O)c2cc(C#N)cc(CO)c2)cnc2c1c(C1CCN(C(=O)C3CCCC3)CC1)cn2C [Example 17, 3-cyano-N-(3-(1-(cyclopentanecarbonyl)piperidin-4-yl)-4-methoxy-1-methyl-1H-pyrrolo[2,3-b]pyridin-5-yl)-5-(hydroxymethyl)benzamide] | 82 | 14.2
COc1c(NC(=O)c2cccc(C#N)c2)cnc2c1c(C1CCN(C(=O)[C@H](C)C3CCCC3)CC1)cn2C [Example 18, (R)-3-cyano-N-(3-(1-(2-cyclopentylpropanoyl)piperidin-4-yl)-4-methoxy-1-methyl-1H-pyrrolo[2,3-b]pyridin-5-yl)benzamide] | 6.5 | 7.1
COc1c(NC(=O)c2cccc(C#N)c2)cnc2c1c(C1CCN(C(=O)[C@@H](C)C3CCCC3)CC1)cn2C [Example 19, (S)-3-cyano-N-(3-(1-(2-cyclopentylpropanoyl)piperidin-4-yl)-4-methoxy-1-methyl-1H-pyrrolo[2,3-b]pyridin-5-yl)benzamide] | 22.3 | 13.3
COc1c(NC(=O)c2cccc(C#N)c2)cnc2c1c([C@@H]1[C@@H]3CC[C@H]1CN(C(=O)C(C)C)C3)cn2C [Example 20, 3-cyano-N-(3-(3-isobutyryl-3-azabicyclo[3.2.1]octan-8-yl)-4-methoxy-1-methyl-1H-pyrrolo[2,3-b]pyridin-5-yl)benzamide] | 112 | 23.2
COc1c(NC(=O)c2cccc(C#N)c2)cnc2c1c([C@@H]1[C@@H]3CC[C@H]1CN(C(=O)C1CCCC1)C3)cn2C [Example 23, 3-cyano-N-(3-((1R,5S,8r)-3-(cyclopentanecarbonyl)-3-azabicyclo[3.2.1]octan-8-yl)-4-methoxy-1-methyl-1H-pyrrolo[2,3-b]pyridin-5-yl)benzamide] | 38 | 31.2
COc1c(NC(=O)c2cccc(C#N)c2)cnc2c1c(C1CCN(C(=O)C3CCCC3)C[C@@H]1C)cn2C (stereo partly drawn) [Example 24, 3-cyano-N-(3-((3R,4R)-1-(cyclopentanecarbonyl)-3-methylpiperdin-4-yl)-4-methoxy-1-methyl-1H-pyrrolo[2,3-b]pyridin-5-yl)benzamide] | 25 | 10.2
COc1ccc(C(=O)Nc2cnc3c(c([C@@H]4CCN(C(=O)C5CCCC5)C[C@@H]4C)cn3C)c2OC)cc1C#N [Example 25, 3-cyano-N-(3-((3R,4R)-1-(cyclopentanecarbonyl)-3-methylpiperidin-4-yl)-4-methoxy-1-methyl-1H-pyrrolo[2,3-b]pyridin-5-yl)-4-methoxybenzamide] | 12 | 10.1
COc1c(NC(=O)c2cccc(C#N)c2)cnc2c1c([C@@H]1CCN(C(=O)[C@H](C)C(C)(C)C)C(C)(C)C1)cn2C [Example 26, 3-cyano-N-(3-((R)-2,2-dimethyl-1-((R)-2,3,3-trimethylbutanoyl)piperidin-4-yl)-4-methoxy-1-methyl-1H-pyrrolo[2,3-b]pyridin-5-yl)benzamide] | 6.4 | 10.4
COc1c(NC(=O)c2cccc(C#N)c2)cnc2c1c([C@@H]1CCN(C(=O)C3CCCCC3)C(C)(C)C1)cn2C [Example 27, (R)-3-cyano-N-(3-(1-(cyclohexanecarbonyl)-2,2-dimethylpiperidin-4-yl)-4-methoxy-1-methyl-1H-pyrrolo[2,3-b]pyridin-5-yl)benzamide] | 11.3 | 4.8
COc1c(NC(=O)c2cccc(C#N)c2)cnc2c1c([C@@H]1CCN(C(=O)C(C)C)C(C)(C)C1)cn2C [Example 28, (R)-3-cyano-N-(3-(1-isobutyryl-2,2-dimethylpiperidin-4-yl)-4-methoxy-1-methyl-1H-pyrrolo[2,3-b]pyridin-5-yl)benzamide] | 21.2 | 6.2
COc1ccc(C(=O)Nc2cnc3c(c([C@@H]4CCN(C(=O)C(C)C)C(C)(C)C4)cn3C)c2OC)cc1C#N [Example 29, (R)-3-cyano-N-(3-(1-isobutyryl-2,2-dimethylpiperidin-4-yl)-4-methoxy-1-methyl-1H-pyrrolo[2,3-b]pyridin-5-yl)-4-methoxybenzamide] | 8.9 | 8.1
COc1ccc(C(=O)Nc2cnc3c(c([C@@H]4CCN(C(=O)C5CCCC5)C(C)(C)C4)cn3C)c2OC)cc1C#N [Example 30, (R)-3-cyano-N-(3-(1-(cyclopentanecarbonyl)-2,2-dimethylpiperidin-4-yl)-4-methoxy-1-methyl-1H-pyrrolo[2,3-b]pyridin-5-yl)-4-methoxybenzamide] | 6.7 | 13.5
